{"source": "patent US20060160789A1", "about": "(priority 2005, published 2006)", "system": "patients hospitalized for a laparotomy in the context of digestive surgery", "conditions": "human, in vivo", "note": "Where “and” joins values, the source holds several entries; their conditions need not be identical. Identical values can stand only once.", "data": [{"smiles": "CN1CCOC(c2ccccc2)c2ccccc2C1", "note": "(centres unmarked) [nefopam]", "values": [{"measurement": "Morphine PCA over 24 h", "result": "0.255 mg/kg and 0.454 mg/kg"}, {"measurement": "Morphine titration (mg)", "result": "7.5 mg and 9 mg"}, {"measurement": "Morphine titration (mg/kg)", "result": "0.082 mg/kg and 0.130 mg/kg"}, {"measurement": "Total morphine over 24 h", "result": "0.365 mg/kg and 0.649 mg/kg"}, {"measurement": "quantity of morphine titration administered for group 4 versus quantity expected if nefopam only had analgesic effects", "result": "smaller than that which would have had to be administered to the group if nefopam only had analgesic effects"}]}]}
